Measurements as given in patent US3937612A, “Dialkylphosphonoacetylurea compounds and processes for preparation and use for flameproofing” (priority 1974, dated 1976).

Experiment: Water solubility (stated in words)
Format: physicochemical
Protocol: While stirring, 682 gm (5 mol) of chloroacetylurea were added portionwise to 831 gm (5 mol) of triethyl phosphite at a temperature of 135°C to 150°C. Each time, the addition of the next portion was delayed until the violent gas evolution had abated. After the last portion of chloracetylurea had been added, the stirring was continued at 150°Cuntil the evolution of gas was terminated. Small quantities of a volatile substance distilled off when the reaction mixture was heated on the water bath under the vacuum generated by an oil pump. The reaction mixture solidified upon cooling. […] The yield of crude product was 1120 gm (94% of the theory).

CCOP(=O)(CC(=O)NC(N)=O)OCC [diethylphosphonoacetylurea, Diethylphosphonoacetylurea]
water solubility: water-soluble
